Assay results as given in PubChem BioAssay AID1275 (Emory University Molecular Libraries Screening Center, 2008).
Several values for one entry are separate records, joined by “and”; a condition that tells them apart may be missing. Identical values can stand only once. Activity calls are given as the source filed them. How the calls were made is not given here.

Biological target: Neutrophil cytosol factor 1 (Homo sapiens) (UniProt P14598)
Test: p47phox binding inhibitors, dose response, biochemical, NADPH oxidase regulatory subunit, fluorescence polarization (AID 1275)
Details: p47phox binding inhibition

Sequence of Neutrophil cytosol factor 1 (Homo sapiens) (P14598 whole entry, looked up): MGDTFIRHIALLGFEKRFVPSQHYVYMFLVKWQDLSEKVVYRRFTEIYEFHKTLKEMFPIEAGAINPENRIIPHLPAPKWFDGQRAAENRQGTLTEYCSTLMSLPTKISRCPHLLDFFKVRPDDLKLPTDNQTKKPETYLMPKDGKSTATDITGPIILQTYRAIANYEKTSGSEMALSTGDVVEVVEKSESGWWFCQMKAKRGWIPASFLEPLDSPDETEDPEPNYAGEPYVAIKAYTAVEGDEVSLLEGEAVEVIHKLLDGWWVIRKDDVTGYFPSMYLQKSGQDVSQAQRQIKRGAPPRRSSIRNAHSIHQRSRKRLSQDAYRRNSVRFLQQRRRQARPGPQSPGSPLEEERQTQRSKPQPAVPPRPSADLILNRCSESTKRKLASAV

| Compound | IC50 |
| --- | --- |
| N#Cc1ccc(N/N=C/c2cn(-c3ccccc3)nc2-c2ccccc2)c([N+](=O)[O-])c1 | > 50 µM (inactive) |
| CCN(CC)c1ccc(/C=N/c2sc3c(c2C#N)C2CCN3CC2)c(O)c1 | 6.96 µM |
| O=c1[nH]c(O)c(/C=C2/C=CC(c3cc(Cl)ccc3Cl)=N2)c(=O)[nH]1 | > 50 µM (inactive) |
| COc1nc(N/N=C/c2ccc(-c3cccc([N+](=O)[O-])c3)o2)nc(N2CCOCC2)n1 | > 50 µM (inactive) |
| Cc1ccccc1NC(=O)Cn1c(O)c(N=NC(=O)c2ccccc2O)c2ccccc21 | > 50 µM (inactive) |
| O=C(N=Nc1c(O)[nH]c2ccc(Cl)cc12)c1cc(-c2cccs2)nc2ccccc12 | > 50 µM (inactive) |
| CCOc1ccc(N/C=C/C(=O)c2ccccc2)c([N+](=O)[O-])c1 | > 50 µM (inactive) |
| O=c1[nH]c(=S)[nH]c(O)c1N=Nc1ccc(-c2ccccc2)cc1[N+](=O)[O-] | 8.05 µM |
| COC(=O)c1cc(C(=O)OC)cc(N2C(=O)CC(NNC(=O)c3ccc(C)cc3)C2=O)c1 (stereo not given) | > 50 µM (inactive) |
| CCOC(=O)C1=C(COc2ccc(C)cc2)NC(=O)NC1c1cc(C)ccc1C (stereo not given) | > 50 µM (inactive) |
| CCOC(=O)C1=C(O)c2ccccc2C(=O)/C1=C\c1ccc(CC)cc1 | > 50 µM (inactive) |
| N=C1CCC(=N)c2c1c(O)c1ccccc1c2O | 0.68 µM |
| CCOc1ccc(N/C=C/C(=O)c2ccc(C)cc2)c([N+](=O)[O-])c1 | > 50 µM (inactive) |
| CCOC(=O)C(=CNc1ccc(Oc2cccnc2)nc1)C(=O)OCC | > 50 µM (inactive) |
| CN(C)CC(C)(C)CN=Cc1c(O)[nH]c2ccccc12 | > 50 µM (inactive) |
| Cn1c(O)c(/C=C2\N=c3ccccc3=C2CCNC(=S)NC2CC2)c(=O)n(C)c1=O | 14.1 µM |
| CN(C)c1ccnc2c[cH-]cc12.[Fe].c1ccc(-[c-]2[c-](-c3ccccc3)[c-](-c3ccccc3)[c-](-c3ccccc3)[c-]2-c2ccccc2)cc1 (stereo not given) | 13.9 µM and 2.73 µM |
| Cc1ccc(C(NC(=O)N2CCOCC2)=C(Cl)Cl)cc1F | > 50 µM (inactive) |
| CCOC(=O)C1=C(c2ccccc2)NC(N)=NC1c1ccc(OCc2ccc(Cl)cc2)c(OC)c1 (stereo not given) | 4.14 µM |
| C/C(=N\Nc1ccc(S(N)(=O)=O)cc1[N+](=O)[O-])c1ccc2c(c1)OCO2 | > 50 µM (inactive) |
| O=C(N=Nc1c(O)n(Cc2ccccc2)c2ccccc12)c1cc2ccccc2cc1O | > 50 µM (inactive) |
| CCOC(=O)C1=C(c2ccccc2)NC(N)=NC1c1ccc(OCc2ccc(C(=O)OC)cc2)cc1 (stereo not given) | 6.96 µM |
| Cc1ccc(C(=O)C2=C(O)C(=O)N(Cc3ccccc3)C2c2cccnc2)o1 (stereo not given) | > 50 µM (inactive) |
| O=[N+]([O-])c1ccc(N/N=C\c2cccn2-c2ccccc2)nc1 | > 50 µM (inactive) |
| CCN=C(Nc1ccc2c(c1)OCO2)SC1CC(=O)N(c2ccccc2F)C1=O (stereo not given) | > 50 µM (inactive) |

| Compound | IC50 |
| --- | --- |
| CC1(C)CC(=O)C2=C(C1)Nc1cc3c(cc1C2c1ccc2c(c1)OCO2)OCO3 (stereo not given) | > 50 µM (inactive) |
| O=C1CCCC(O)=C1N=Nc1ccc(C(=O)O)cc1 | > 50 µM (inactive) |
| Cc1ccc(-n2c(O)c(/C=N/Nc3ccccc3)c(=O)[nH]c2=O)cc1C | > 50 µM (inactive) |
| COc1ccc(-c2cnnc(N/N=C/c3ccc(-c4ccc([N+](=O)[O-])cc4)o3)n2)cc1 | > 50 µM (inactive) |
| O=C1Nc2ccccc2/C1=N/N=C/c1ccc(-c2ccc([N+](=O)[O-])cc2)o1 | > 50 µM (inactive) |
| Cc1nc2ccccc2n2c(O)c(CC(=O)O)cc12 | inactive |
| CCOC(=O)c1ccc(N2C(=O)CC(Nc3ccc(O)cc3)C2=O)cc1 (stereo not given) | 23.7 µM |
| Cc1cccc(N=Nc2c(C)c(C#N)c(O)[nH]c2=O)c1 | > 50 µM (inactive) |
| CC1=C(C#N)c2nc(N)c(C#N)c(C)c2/C1=C\c1ccc(-c2ccccc2C(=O)O)o1 | 26.9 µM |
| CC(C)Cc1ccc(/C(=N/O)C(=O)O)s1 | > 50 µM (inactive) |
| Cc1ccc(/C(CSc2nccn2-c2ncc(C(F)(F)F)cc2Cl)=N\O)cc1 | > 50 µM (inactive) |
| O=c1cnnc(N/N=C/c2c[nH]c3ccccc23)[nH]1 | > 50 µM (inactive) |
| COc1ccc(C2C(C#N)=C(N)Oc3cc4c(cc32)OCO4)cc1 (stereo not given) | > 50 µM (inactive) |
| Clc1ccc(/C=N/Nc2nc(Cl)nc3ccccc23)cc1 | > 50 µM (inactive) |
| N#CC(=C=[N-])c1nc2ccccc2nc1-[n+]1cccc(NC(=O)c2ccccc2)c1 | > 50 µM (inactive) and 24.2 µM |
| C[c-]1[c-](C)[c-](C)[c-](C)[c-]1C.[Fe].c1cc2nccc(N3CCCC3)[c-]2c1 (stereo not given) | > 50 µM (inactive) |
| N#CC1=C(N)OC2=C(CN(Cc3ccccc3)C/C2=C\c2cccnc2)C1c1cccnc1 (stereo not given) | 3.5 µM |
| COc1ccc(N=C2O/C(=C/c3sc(=S)n(CC4CCCO4)c3O)N=C2C#N)cc1 (stereo not given) | 16 µM |
| Nc1cc(Cl)ccc1N1C(=O)CCC1=O | > 50 µM (inactive) |
| C(=N\Nc1nc(Nc2ccccc2)nc(N2CCCCC2)n1)/c1ccco1 | > 50 µM (inactive) |
| CC(C)N1CC2=C(OC(N)=C(C#N)C2c2cccnc2)/C(=C/c2cccnc2)C1 (stereo not given) | inactive |
| N#CC(=C=[N-])c1nc2ccccc2nc1-[n+]1cccc(NC(=O)c2cccs2)c1 | 14.8 µM |
| CCOC(=O)C1=C(O)CSC1=Nc1ccc(Cl)cc1 | > 50 µM (inactive) |
| O=C(N=Nc1c(O)n(C2OC(=O)c3ccccc32)c2ccccc12)c1ccco1 (stereo not given) | > 50 µM (inactive) |
| CCOC(=O)/C(C)=C1\NC(C)(C)Cc2ccccc21 | > 50 µM (inactive) |

| Compound | IC50 |
| --- | --- |
| C=CCNC(=S)N1CCN(CCN=CC2=C(O)CC(c3ccco3)CC2=O)CC1 (stereo not given) | > 50 µM (inactive) |
| O=C1OCC=C1NNC(=O)c1cccnc1 | > 50 µM (inactive) |
| COc1ccc(-c2cn[nH]c2-c2ccc(OCc3ccc([N+](=O)[O-])cc3)cc2O)cc1 | > 50 µM (inactive) |
| Cc1cccc(NC(=O)Cn2c(O)c(N=NC(=O)c3ccccc3O)c3ccccc32)c1 | > 50 µM (inactive) |
| Cc1ccc(NC(=O)Cn2c(O)c(N=NC(=O)c3cc4ccccc4cc3O)c3ccccc32)cc1 | > 50 µM (inactive) |
| C/C(N)=C(/C#N)C(=O)CSc1nnc(-c2ccc3c(c2)OCO3)o1 | > 50 µM (inactive) |
| O=C(Cn1c(O)c(/C=C2\C=Nc3ccc(Br)cc32)sc1=O)N1CCCC1 | > 50 µM (inactive) |
| O=[N+]([O-])c1ccc(N=Cc2c(O)ccc3ccccc23)cc1 | 4.58 µM |
| Oc1[nH]c(=S)sc1/C=C1\C(c2ccccc2)=Nc2ccccc21 | inactive |
| CCOc1ccc(C2CC(c3c(O)n(C)c(=O)n(C)c3=O)=NN2)cc1 (stereo not given) | > 50 µM (inactive) |
| CC(=O)N1C(=O)C2(C(C#N)=C(N)Oc3n[nH]c(-c4ccccn4)c32)c2ccccc21 (stereo not given) | > 50 µM (inactive) |
| O=C(N=Nc1c(O)[nH]c2ccc(Br)cc12)c1cc(-c2cccs2)nc2ccccc12 | > 50 µM (inactive) |
| CSc1sc(C)cc1C1C(C#N)=C(N)N(c2cccnc2)C2=C1C(=O)CCC2 (stereo not given) | > 50 µM (inactive) |
| COc1ccc(C2C(C(=O)c3ccccc3)=C(C)Nc3nc4ccccc4n32)cc1OC (stereo not given) | > 50 µM (inactive) |
| CCOc1ccc2c(c1)C(c1cccs1)=NNC(c1cccnc1)=N2 | > 50 µM (inactive) |
| CCOc1ccc(-n2c(SCC(=O)Nc3ccc(Br)cc3)nc3n[nH]c(C)c3c2=N)cc1 | > 50 µM (inactive) |
| COc1ccc(N2C(=O)CNC2=S)cc1 | > 50 µM (inactive) |
| CC1CCCCN1C(=O)C12CCC(C)(/C(=N/O)C1)C2(C)C (stereo not given) | > 50 µM (inactive) |
| Cc1ccc(/C=N/Nc2ccnc3cc(Cl)ccc23)c(C)c1 | > 50 µM (inactive) |
| CC1=NN(c2ccccc2)C(=O)/C1=C/C=C/c1ccc(N(C)C)cc1 | > 50 µM (inactive) |
| COCc1cc(C)nc(N/N=C/c2ccc(-c3ccc(Cl)cc3[N+](=O)[O-])o2)c1C#N | > 50 µM (inactive) |
| O=c1oc2ccccc2c(O)c1/C=C1\C=Nc2ccccc21 | > 50 µM (inactive) |
| COc1cc(/C=N/NC(=O)c2ccc(CN3c4cccc5cccc(c45)S3(=O)=O)cc2)cc(OC)c1O | > 50 µM (inactive) |
| CCc1cc2c(=O)nc3n(c2s1)Cc1ccccc1/C3=C(/O)c1ccccc1Cl | > 50 µM (inactive) |
| Cc1cc2c(C)nc(N/N=C/c3ccc([N+](=O)[O-])cc3)nc2o1 | > 50 µM (inactive) |
